Experimental data: the kinase profiling compilation of Christmann-Franck et al. (2016)

Key:
Assay in all cases: radiometric filter-binding kinase assay
MAP2K2 (human) = MAP2K2 (human) (UniProt P36507)
TTK (human) = TTK (human) (UniProt P33981)
MARK4 (human) = MARK4 (human) (UniProt Q96L34)
GSK3B (human) = GSK3B (human) (UniProt P49841)
CDK2 CCNA2 (human) = CDK2 CCNA2 (human) (UniProt P20248+P24941)
MELK (human) = MELK (human) (UniProt Q14680)
ERBB4 (human) = ERBB4 (human) (UniProt Q15303)
RPS6KA1 KD1 KD2 (human) = RPS6KA1 KD1 KD2 (human) (UniProt Q15418)
CHEK2 (human) = CHEK2 (human) (UniProt O96017)
PRKACA (human) = PRKACA (human) (UniProt P17612)
ROCK2 (rat) = details: accession and sequence are those of the human protein
[1] = biological target: STK11 CAB39 STRADA (human) (UniProt Q9Y376+Q7RTN6+Q15831)
MINK1 (human) = MINK1 (human) (UniProt Q8N4C8)
EPHB3 (human) = EPHB3 (human) (UniProt P54753)
CSK (human) = CSK (human) (UniProt P41240)
LCK (mouse) = details: accession and sequence are those of the human protein
EEF2K (human) = EEF2K (human) (UniProt O00418)
IKBKB (human) = IKBKB (human) (UniProt O14920)

Chain of EEF2K (human) (O00418 whole entry, looked up): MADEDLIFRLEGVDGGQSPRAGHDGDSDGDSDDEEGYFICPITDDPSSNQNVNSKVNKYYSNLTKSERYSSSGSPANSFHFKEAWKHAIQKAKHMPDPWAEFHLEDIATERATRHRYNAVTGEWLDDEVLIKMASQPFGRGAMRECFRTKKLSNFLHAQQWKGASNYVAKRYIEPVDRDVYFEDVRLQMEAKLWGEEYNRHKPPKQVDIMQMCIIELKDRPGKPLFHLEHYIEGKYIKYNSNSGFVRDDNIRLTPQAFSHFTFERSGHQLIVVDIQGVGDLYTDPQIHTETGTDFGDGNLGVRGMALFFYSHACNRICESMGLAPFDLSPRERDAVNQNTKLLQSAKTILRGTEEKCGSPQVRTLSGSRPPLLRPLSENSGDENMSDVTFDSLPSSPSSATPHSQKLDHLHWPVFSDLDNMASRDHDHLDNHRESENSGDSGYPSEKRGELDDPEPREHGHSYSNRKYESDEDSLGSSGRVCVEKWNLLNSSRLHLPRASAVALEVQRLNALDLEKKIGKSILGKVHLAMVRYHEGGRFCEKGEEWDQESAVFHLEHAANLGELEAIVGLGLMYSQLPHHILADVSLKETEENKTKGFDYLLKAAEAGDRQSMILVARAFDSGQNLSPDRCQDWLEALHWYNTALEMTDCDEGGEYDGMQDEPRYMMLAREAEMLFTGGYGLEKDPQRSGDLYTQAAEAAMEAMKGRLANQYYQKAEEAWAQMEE
Chain of GSK3B (human) (P49841 whole entry, looked up): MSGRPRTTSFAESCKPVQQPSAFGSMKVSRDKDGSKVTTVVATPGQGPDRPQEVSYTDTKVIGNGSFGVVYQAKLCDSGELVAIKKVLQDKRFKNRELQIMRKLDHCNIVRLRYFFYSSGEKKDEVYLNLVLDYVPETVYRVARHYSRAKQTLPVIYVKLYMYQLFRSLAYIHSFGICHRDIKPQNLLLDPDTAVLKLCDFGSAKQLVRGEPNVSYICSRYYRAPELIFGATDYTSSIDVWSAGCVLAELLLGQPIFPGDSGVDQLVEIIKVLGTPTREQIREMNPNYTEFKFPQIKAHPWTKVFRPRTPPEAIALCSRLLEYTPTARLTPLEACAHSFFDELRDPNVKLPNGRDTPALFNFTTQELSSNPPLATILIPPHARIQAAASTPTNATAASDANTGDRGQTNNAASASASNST
Chain of TTK (human) (P33981 whole entry, looked up): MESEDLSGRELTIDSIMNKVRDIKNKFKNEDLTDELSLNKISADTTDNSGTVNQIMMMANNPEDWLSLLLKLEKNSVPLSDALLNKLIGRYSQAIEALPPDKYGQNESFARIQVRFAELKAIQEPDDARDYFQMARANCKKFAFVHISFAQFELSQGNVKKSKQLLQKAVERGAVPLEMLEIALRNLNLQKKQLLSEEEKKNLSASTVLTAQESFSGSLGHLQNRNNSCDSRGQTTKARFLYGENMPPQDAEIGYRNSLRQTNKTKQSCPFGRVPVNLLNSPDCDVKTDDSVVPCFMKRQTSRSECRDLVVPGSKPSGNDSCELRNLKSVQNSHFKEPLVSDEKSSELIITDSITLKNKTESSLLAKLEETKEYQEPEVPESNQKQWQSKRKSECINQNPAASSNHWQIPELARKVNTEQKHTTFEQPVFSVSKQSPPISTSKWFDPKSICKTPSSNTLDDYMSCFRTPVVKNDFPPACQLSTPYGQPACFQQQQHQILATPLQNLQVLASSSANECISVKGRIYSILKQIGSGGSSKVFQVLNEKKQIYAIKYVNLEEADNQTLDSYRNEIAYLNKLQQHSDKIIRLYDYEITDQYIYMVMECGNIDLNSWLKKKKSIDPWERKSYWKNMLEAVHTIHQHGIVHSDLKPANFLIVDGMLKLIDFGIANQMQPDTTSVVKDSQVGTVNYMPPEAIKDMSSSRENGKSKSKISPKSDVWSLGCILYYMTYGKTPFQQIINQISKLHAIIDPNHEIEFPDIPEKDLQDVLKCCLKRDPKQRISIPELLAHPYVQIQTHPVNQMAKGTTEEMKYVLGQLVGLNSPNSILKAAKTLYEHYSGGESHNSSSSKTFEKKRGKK
Chain of CSK (human) (P41240 whole entry, looked up): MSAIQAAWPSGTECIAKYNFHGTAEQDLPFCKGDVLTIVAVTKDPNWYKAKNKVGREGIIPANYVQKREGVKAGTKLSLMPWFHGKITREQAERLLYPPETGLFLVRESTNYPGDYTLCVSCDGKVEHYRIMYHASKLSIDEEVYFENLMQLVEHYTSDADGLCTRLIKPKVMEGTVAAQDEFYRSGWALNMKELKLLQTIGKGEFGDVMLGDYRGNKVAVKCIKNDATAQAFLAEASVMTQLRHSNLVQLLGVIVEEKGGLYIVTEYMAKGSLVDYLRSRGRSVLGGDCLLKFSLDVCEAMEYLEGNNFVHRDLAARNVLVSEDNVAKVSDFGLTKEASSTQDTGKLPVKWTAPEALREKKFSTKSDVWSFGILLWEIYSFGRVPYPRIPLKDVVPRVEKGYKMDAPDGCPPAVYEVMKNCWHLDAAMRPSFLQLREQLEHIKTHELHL
Chain of MINK1 (human) (Q8N4C8 whole entry, looked up): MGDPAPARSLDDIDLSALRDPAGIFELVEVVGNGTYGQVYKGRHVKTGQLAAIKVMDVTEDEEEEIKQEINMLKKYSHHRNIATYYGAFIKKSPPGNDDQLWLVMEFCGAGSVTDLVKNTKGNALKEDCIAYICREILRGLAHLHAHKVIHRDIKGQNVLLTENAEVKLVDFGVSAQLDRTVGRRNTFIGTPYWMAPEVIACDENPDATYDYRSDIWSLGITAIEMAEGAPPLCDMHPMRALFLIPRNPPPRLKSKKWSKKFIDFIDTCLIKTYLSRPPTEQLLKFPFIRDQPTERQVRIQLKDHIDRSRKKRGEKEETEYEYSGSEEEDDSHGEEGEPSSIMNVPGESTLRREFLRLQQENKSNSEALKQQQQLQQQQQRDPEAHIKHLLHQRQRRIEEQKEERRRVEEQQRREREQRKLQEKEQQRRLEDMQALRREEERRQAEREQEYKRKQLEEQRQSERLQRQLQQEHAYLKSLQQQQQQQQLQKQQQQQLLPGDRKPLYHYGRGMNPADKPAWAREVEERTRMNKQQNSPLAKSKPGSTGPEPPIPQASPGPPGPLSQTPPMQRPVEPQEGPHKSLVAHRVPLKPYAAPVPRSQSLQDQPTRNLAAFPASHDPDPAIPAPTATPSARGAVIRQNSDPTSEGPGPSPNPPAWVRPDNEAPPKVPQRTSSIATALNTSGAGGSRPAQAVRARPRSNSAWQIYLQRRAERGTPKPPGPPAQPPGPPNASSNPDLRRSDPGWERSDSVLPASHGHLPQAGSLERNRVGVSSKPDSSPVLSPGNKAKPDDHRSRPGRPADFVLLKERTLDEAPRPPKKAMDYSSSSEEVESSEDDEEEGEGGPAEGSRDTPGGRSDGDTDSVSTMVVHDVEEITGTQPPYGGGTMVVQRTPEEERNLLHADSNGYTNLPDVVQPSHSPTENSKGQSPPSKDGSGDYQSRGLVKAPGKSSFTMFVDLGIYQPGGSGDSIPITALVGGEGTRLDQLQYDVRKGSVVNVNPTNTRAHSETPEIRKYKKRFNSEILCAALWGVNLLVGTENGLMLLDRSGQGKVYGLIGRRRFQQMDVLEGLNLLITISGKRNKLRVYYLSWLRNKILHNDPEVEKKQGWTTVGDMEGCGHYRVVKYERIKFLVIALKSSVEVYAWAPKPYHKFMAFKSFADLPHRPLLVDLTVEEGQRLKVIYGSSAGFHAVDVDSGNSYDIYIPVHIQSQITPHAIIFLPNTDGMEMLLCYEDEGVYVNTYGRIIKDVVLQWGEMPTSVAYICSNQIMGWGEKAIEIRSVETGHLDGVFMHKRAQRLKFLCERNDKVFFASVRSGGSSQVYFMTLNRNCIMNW
Chain of EPHB3 (human) (P54753 whole entry, looked up): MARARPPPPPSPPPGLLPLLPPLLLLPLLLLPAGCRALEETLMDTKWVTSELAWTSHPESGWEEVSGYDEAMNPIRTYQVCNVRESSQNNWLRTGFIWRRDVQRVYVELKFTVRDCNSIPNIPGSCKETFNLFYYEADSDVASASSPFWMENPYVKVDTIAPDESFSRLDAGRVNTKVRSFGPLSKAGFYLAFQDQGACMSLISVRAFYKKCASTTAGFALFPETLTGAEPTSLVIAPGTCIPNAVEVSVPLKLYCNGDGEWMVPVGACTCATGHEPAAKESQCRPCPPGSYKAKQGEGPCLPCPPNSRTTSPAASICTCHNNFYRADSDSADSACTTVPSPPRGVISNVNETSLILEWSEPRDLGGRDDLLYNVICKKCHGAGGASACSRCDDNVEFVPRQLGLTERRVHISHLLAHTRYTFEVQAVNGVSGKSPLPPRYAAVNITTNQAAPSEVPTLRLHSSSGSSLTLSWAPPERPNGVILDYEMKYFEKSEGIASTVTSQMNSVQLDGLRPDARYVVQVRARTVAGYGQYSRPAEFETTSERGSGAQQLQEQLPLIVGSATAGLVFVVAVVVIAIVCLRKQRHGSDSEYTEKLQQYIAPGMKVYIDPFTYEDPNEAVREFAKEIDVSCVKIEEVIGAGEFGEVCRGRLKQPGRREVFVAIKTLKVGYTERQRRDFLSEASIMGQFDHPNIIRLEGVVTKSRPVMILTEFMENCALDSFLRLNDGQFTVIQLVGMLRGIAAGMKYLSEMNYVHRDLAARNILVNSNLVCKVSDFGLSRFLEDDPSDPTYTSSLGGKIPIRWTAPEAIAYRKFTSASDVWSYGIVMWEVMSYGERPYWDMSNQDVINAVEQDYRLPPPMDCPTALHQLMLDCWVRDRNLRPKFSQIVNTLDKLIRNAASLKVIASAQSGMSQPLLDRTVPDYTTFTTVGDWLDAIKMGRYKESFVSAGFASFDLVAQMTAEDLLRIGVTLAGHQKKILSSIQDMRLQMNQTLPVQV

Cc1ccc(Sc2cnc(Nc3cccc(Br)n3)s2)cc1C(=O)N1CCN(C(=O)CN)CC1
residual activity (MAP2K2 (human); compound 0.1 µM): 86% | residual activity (MAP2K2 (human); compound 1.0 µM): 77% | residual activity (TTK (human); compound 0.1 µM): 75% | residual activity (TTK (human); compound 1.0 µM): 73% | residual activity (TTK (human); compound 10.0 µM): 42% | residual activity (MARK4 (human); compound 0.1 µM): 101% | residual activity (MARK4 (human); compound 1.0 µM): 118% | residual activity (MARK4 (human); compound 10.0 µM): 43% | residual activity (GSK3B (human); compound 0.1 µM): 46% | residual activity (GSK3B (human); compound 1.0 µM): 41% | residual activity (GSK3B (human); compound 10.0 µM): 37% | residual activity (CDK2 CCNA2 (human); compound 0.1 µM): 35% | residual activity (CDK2 CCNA2 (human); compound 1.0 µM): 15% | residual activity (CDK2 CCNA2 (human); compound 10.0 µM): 3% | residual activity (MELK (human); compound 0.1 µM): 42% | residual activity (MELK (human); compound 1.0 µM): 15% | residual activity (MELK (human); compound 10.0 µM): 5% | residual activity (ERBB4 (human); compound 0.1 µM): 69% | residual activity (ERBB4 (human); compound 1.0 µM): 64% | residual activity (ERBB4 (human); compound 10.0 µM): 51% | residual activity (RPS6KA1 KD1 KD2 (human); compound 0.1 µM): 31% | residual activity (RPS6KA1 KD1 KD2 (human); compound 1.0 µM): 29% | residual activity (RPS6KA1 KD1 KD2 (human); compound 10.0 µM): 6% | residual activity (CHEK2 (human); compound 0.1 µM): 20% | residual activity (CHEK2 (human); compound 1.0 µM): 18% | residual activity (CHEK2 (human); compound 10.0 µM): 4% | residual activity (PRKACA (human); compound 0.1 µM): 98% | residual activity (PRKACA (human); compound 1.0 µM): 88% | residual activity (PRKACA (human); compound 10.0 µM): 54% | residual activity (ROCK2 (rat); compound 0.1 µM): 90% | residual activity (ROCK2 (rat); compound 1.0 µM): 82% | residual activity (ROCK2 (rat); compound 10.0 µM): 63% | residual activity ([1]; compound 0.1 µM): 64% | residual activity ([1]; compound 1.0 µM): 62% | residual activity ([1]; compound 10.0 µM): 8% | residual activity (MINK1 (human); compound 0.1 µM): 69% | residual activity (MINK1 (human); compound 1.0 µM): 64% | residual activity (MINK1 (human); compound 10.0 µM): 8% | residual activity (EPHB3 (human); compound 0.1 µM): 22% | residual activity (EPHB3 (human); compound 1.0 µM): 20% | residual activity (EPHB3 (human); compound 10.0 µM): 6% | residual activity (CSK (human); compound 0.1 µM): 103% | residual activity (CSK (human); compound 1.0 µM): 88% | residual activity (CSK (human); compound 10.0 µM): 9% | residual activity (LCK (mouse); compound 0.1 µM): 43% | residual activity (LCK (mouse); compound 1.0 µM): 13% | residual activity (LCK (mouse); compound 10.0 µM): 5% | residual activity (EEF2K (human); compound 0.1 µM): 113% | residual activity (EEF2K (human); compound 1.0 µM): 96% | residual activity (EEF2K (human); compound 10.0 µM): 92% | residual activity (IKBKB (human); compound 0.1 µM): 107% | residual activity (IKBKB (human); compound 1.0 µM): 92%
